Results published in ChEMBL document CHEMBL5370543, “Discovery of 6-aryl-2-(3,4,5-trimethoxyphenyl)thiazole[3,2-b][1,2,4]triazoles as potent tubulin polymerization inhibitors” (Eur J Med Chem, 2023).
pIC50: −log10 of the molar value. Activity calls are given as the source filed them. The calls are words filed in the database; no cut-off is given here.

Key:
4T1 [1] = test: Antitumor activity against mouse 4T1 cells allografted in Balb/c mouse assessed as decrease in tumor volume at 20 mg/kg, iv administered every other day measured for 12 days; type: functional, organism-based; conditions: time 12.0 day
4T1 [2] = test: Antitumor activity against mouse 4T1 cells allografted in Balb/c mouse assessed as tumor growth inhibition at 10 mg/kg, iv administered every other day measured for 12 days relative to control; type: functional; conditions: 4T1, 288 h, time 12 day, read-out: TGI
4T1 [3] = test: Antitumor activity against mouse 4T1 cells allografted in Balb/c mouse assessed as tumor weight at 10 mg/kg, iv administered every other day measured after 12 days (reference value: 448 mg); type: functional; conditions: time 12 day
SGC-7901 [4] = test: Induction of cell cycle arrest in human SGC-7901 cells assessed as accumulation at G2/M phase at 2 times IC50 incubated for 72 hrs by PI/RNase staining based flow cytometry (reference value: 10 %); type: functional
MCF7 = test: Antiproliferative activity against human MCF7 cells assessed as cell growth inhibition incubated for 72 hrs by MTT assay; type: functional, cell-based; conditions: MCF7, 72 h
4T1 [5] = test: Antitumor activity against mouse 4T1 cells allografted in Balb/c mouse assessed as tumor growth inhibition at 20 mg/kg, iv administered every other day measured for 12 days relative to control; type: functional; conditions: 4T1, 288 h, time 12 day, read-out: TGI
SGC-7901 [6] = test: Induction of cell cycle arrest in human SGC-7901 cells assessed as accumulation at G2/M phase at 2 times IC50 incubated for 48 hrs by PI/RNase staining based flow cytometry (reference value: 10 %); type: functional
SGC-7901 [7] = test: Induction of cell cycle arrest in human SGC-7901 cells assessed as accumulation at S phase at 2 times IC50 incubated for 72 hrs by PI/RNase staining based flow cytometry (reference value: 46 %); type: functional
[8] = Selectivity index, ratio of IC50 for HUVEC cells to IC50 for human SGC-7901 cells; type: functional
4T1 [9] = test: Antitumor activity against mouse 4T1 cells allografted in Balb/c mouse assessed as tumor weight at 20 mg/kg, iv administered every other day measured after 12 days (reference value: 448 mg); type: functional; conditions: time 12 day
SGC-7901 [10] = test: Induction of cell cycle arrest in human SGC-7901 cells assessed as accumulation at G0/G1 phase at 2 times IC50 incubated for 12 hrs by PI/RNase staining based flow cytometry (reference value: 42 %); type: functional
Tubulin = test: (§1) Inhibition of tubulin polymerization (unknown origin) by fluorescence based assay; type: protein-complex assay, Homo sapiens
Tubulin (Homo sapiens) [11] = target: T1, Tubulin (Homo sapiens) (UniProt P68371+Q9H4B7+P0DPH7+P68366+Q13509+Q71U36+P04350+Q3ZCM7+P07437+P68363+Q9BQE3+Q6PEY2+Q13885+Q9BVA1+Q9BUF5); test: as §1; type: protein-complex assay
SGC-7901 [12] = test: Induction of cell cycle arrest in human SGC-7901 cells assessed as accumulation at sub-G1 phase at 2 times IC50 incubated for 6 hrs by PI/RNase staining based flow cytometry (reference value: 2 %); type: functional
Tubulin (Homo sapiens) [13] = target: T1, Tubulin (Homo sapiens); test: Binding affinity to tubulin (unknown origin) at colchicine binding site assessed as tubulin-colchicine complex competition rate at 1.25 uM preincubated for 45 mins followed by colchicine addition by fluorescence based assay relative to control; type: protein-complex assay
[14] = Cytotoxicity against HUVEC cells assessed as cell growth inhibition incubated for 72 hrs by MTT assay; type: toxicity, cell-based; conditions: human
SGC-7901 [15] = test: Induction of cell cycle arrest in human SGC-7901 cells assessed as accumulation at sub-G1 phase at 2 times IC50 incubated for 12 hrs by PI/RNase staining based flow cytometry (reference value: 2 %); type: functional
HT-1080 = test: Antiproliferative activity against human HT-1080 cells assessed as cell growth inhibition incubated for 72 hrs by MTT assay; type: functional, cell-based; conditions: HT-1080, 72 h
4T1 [16] = test: Cytotoxicity against mouse 4T1 cells assessed as cell growth inhibition incubated for 72 hrs by MTT assay; type: functional, cell-based; conditions: 4T1, 72 h
SGC-7901 [17] = test: Induction of cell cycle arrest in human SGC-7901 cells assessed as accumulation at sub-G1 phase at 2 times IC50 incubated for 24 hrs by PI/RNase staining based flow cytometry (reference value: 2 %); type: functional
SGC-7901 [18] = test: Induction of cell cycle arrest in human SGC-7901 cells assessed as accumulation at S phase at 2 times IC50 incubated for 6 hrs by PI/RNase staining based flow cytometry (reference value: 46 %); type: functional
SGC-7901 [19] = test: Induction of cell cycle arrest in human SGC-7901 cells assessed as accumulation at G0/G1 phase at 2 times IC50 incubated for 48 hrs by PI/RNase staining based flow cytometry (reference value: 42 %); type: functional
[20] = Toxicity in Balb/c mouse allografted with mouse 4T1 cells assessed as decrease in body weight at 20 mg/kg, iv administered every other day measured for 12 days; type: organism-based; conditions: in vivo, 288 h, time 12 day
4T1 [21] = test: Antitumor activity against mouse 4T1 cells allografted in Balb/c mouse assessed as tumor weight at 5 mg/kg, iv administered every other day measured after 12 days (reference value: 448 mg); type: functional; conditions: time 12 day
SGC-7901 [22] = test: Induction of cell cycle arrest in human SGC-7901 cells assessed as accumulation at S phase at 2 times IC50 incubated for 48 hrs by PI/RNase staining based flow cytometry (reference value: 46 %); type: functional
SGC-7901 [23] = test: Induction of cell cycle arrest in human SGC-7901 cells assessed as accumulation at G2/M phase at 2 times IC50 incubated for 24 hrs by PI/RNase staining based flow cytometry (reference value: 10 %); type: functional
SGC-7901 [24] = test: Induction of cell cycle arrest in human SGC-7901 cells assessed as accumulation at S phase at 2 times IC50 incubated for 12 hrs by PI/RNase staining based flow cytometry (reference value: 46 %); type: functional
SGC-7901 [25] = test: Induction of cell cycle arrest in human SGC-7901 cells assessed as accumulation at sub-G1 phase at 2 times IC50 incubated for 48 hrs by PI/RNase staining based flow cytometry (reference value: 2 %); type: functional
SGC-7901 [26] = test: Antiproliferative activity against human SGC-7901 cells assessed as cell growth inhibition incubated for 72 hrs by MTT assay; type: functional, cell-based; conditions: SGC-7901, 72 h
4T1 [27] = test: Antitumor activity against mouse 4T1 cells allografted in Balb/c mouse assessed as tumor growth inhibition at 5 mg/kg, iv administered every other day measured for 12 days relative to control; type: functional; conditions: 4T1, 288 h, time 12 day, read-out: TGI
SGC-7901 [28] = test: Induction of cell cycle arrest in human SGC-7901 cells assessed as accumulation at sub-G1 phase at 2 times IC50 incubated for 72 hrs by PI/RNase staining based flow cytometry (reference value: 2 %); type: functional
SGC-7901 [29] = test: Induction of cell cycle arrest in human SGC-7901 cells assessed as accumulation at G0/G1 phase at 2 times IC50 incubated for 6 hrs by PI/RNase staining based flow cytometry (reference value: 42 %); type: functional
SGC-7901 [30] = test: Induction of cell cycle arrest in human SGC-7901 cells assessed as accumulation at G2/M phase at 2 times IC50 incubated for 6 hrs by PI/RNase staining based flow cytometry (reference value: 10 %); type: functional
SGC-7901 [31] = test: Induction of cell cycle arrest in human SGC-7901 cells assessed as accumulation at G2/M phase at 2 times IC50 incubated for 12 hrs by PI/RNase staining based flow cytometry (reference value: 10 %); type: functional
SGC-7901 [32] = test: Induction of cell cycle arrest in human SGC-7901 cells assessed as accumulation at S phase at 2 times IC50 incubated for 24 hrs by PI/RNase staining based flow cytometry (reference value: 46 %); type: functional
Tubulin (Homo sapiens) [33] = target: T1, Tubulin (Homo sapiens); test: Disruption of microtubule organization in human SGC-7901 cells assessed as shrinkage of microtubule network around nucleus at 2 times IC50 incubated for 12 hrs by […] based analysis; type: cell-based
SGC-7901 [34] = test: Induction of cell cycle arrest in human SGC-7901 cells assessed as accumulation at G0/G1 phase at 2 times IC50 incubated for 24 hrs by PI/RNase staining based flow cytometry (reference value: 42 %); type: functional

pIC50 (MCF7): 5.67
pIC50 (Tubulin): 5.16
inhibition (Tubulin (Homo sapiens) [11]): Dose-Dependent Effect
Activity (Tubulin (Homo sapiens) [13]): 37.9%
pIC50 (HT-1080): 5.93
pIC50 (SGC-7901 [26]): 6.68
Activity (Tubulin (Homo sapiens) [33]): Active
SMILES: COc1cc(-c2nc3scc(-c4cc(Cl)cc(Cl)c4)n3n2)cc(OC)c1OC
Activity (4T1 [1]): Active
inhibition in vivo at 10 mg/kg (4T1 [2]): 58.1%
Activity (4T1 [3]): 187.74 mg
Activity (SGC-7901 [4]): 4%
inhibition in vivo at 20 mg/kg (4T1 [5]): 84%
Activity (SGC-7901 [6]): 19%
Activity (SGC-7901 [7]): 3%
Ratio IC50 [8]: 62.62
Activity (4T1 [9]): 71.76 mg
Activity (SGC-7901 [10]): 21%
Activity (SGC-7901 [12]): 2%
IC50 at 72 h [14]: 13200 nM
Activity (SGC-7901 [15]): 17%
pIC50 (4T1 [16]): 6.47
Activity (SGC-7901 [17]): 21%
Activity (SGC-7901 [18]): 49%
Activity (SGC-7901 [19]): 4%
Activity [20]: Non-Toxic
Activity (4T1 [21]): 227.5 mg
Activity (SGC-7901 [22]): 8%
Activity (SGC-7901 [23]): 42%
Activity (SGC-7901 [24]): 31%
Activity (SGC-7901 [25]): 69%
inhibition in vivo at 5 mg/kg (4T1 [27]): 49.2%
Activity (SGC-7901 [28]): 93%
Activity (SGC-7901 [29]): 36%
Activity (SGC-7901 [30]): 13%
Activity (SGC-7901 [31]): 31%
Activity (SGC-7901 [32]): 21%
Activity (SGC-7901 [34]): 16%
